Reference: patent US20260116920A1, “HUMAN TRANSFERRIN RECEPTOR BINDING PEPTIDE” (PEPTIDREAM INC., priority 2021, published 2026)
Positions of bridges follow the written chain, without caps; N, C: chain ends. Non-standard residues stand in square brackets, D forms with d. Residues, ends and D or L forms follow the SMILES beside them. *: point of attachment. Ala(1-CH2CO2H-4-piperidyl) = N[C@@H](CC1CCN(CC(=O)O)CC1)C(=O)O; Trp(1-CH2COOH) = N[C@@H](Cc1cn(CC(=O)O)c2ccccc12)C(=O)O; Nle(6-morpholino) = N[C@@H](CCCCN1CCOCC1)C(=O)O; NMePhe(3-Cl) = CN[C@@H](Cc1cccc(Cl)c1)C(=O)O; NMeY = CN[C@@H](Cc1ccc(O)cc1)C(=O)O; PEG4 = NCCOCCOCCOCCOCCC(=O)O; Carboxymethyl = O=C(O)C*

These molecules were tested against T1, human transferrin receptor (hTfR) (Homo sapiens, UniProt P02786) (assay: Evaluation of molecular interaction between transferrin receptor (hTfR) and peptide using surface plasmon resonance (SPR)). Details: KD class for binding to hTfR by SPR; peptide with the linker shown in the same line; 'low signal indicates no activity'; read-out: SPR.
T1 construct: made in house
T1 sequence (P02786 89-760 limits assumed): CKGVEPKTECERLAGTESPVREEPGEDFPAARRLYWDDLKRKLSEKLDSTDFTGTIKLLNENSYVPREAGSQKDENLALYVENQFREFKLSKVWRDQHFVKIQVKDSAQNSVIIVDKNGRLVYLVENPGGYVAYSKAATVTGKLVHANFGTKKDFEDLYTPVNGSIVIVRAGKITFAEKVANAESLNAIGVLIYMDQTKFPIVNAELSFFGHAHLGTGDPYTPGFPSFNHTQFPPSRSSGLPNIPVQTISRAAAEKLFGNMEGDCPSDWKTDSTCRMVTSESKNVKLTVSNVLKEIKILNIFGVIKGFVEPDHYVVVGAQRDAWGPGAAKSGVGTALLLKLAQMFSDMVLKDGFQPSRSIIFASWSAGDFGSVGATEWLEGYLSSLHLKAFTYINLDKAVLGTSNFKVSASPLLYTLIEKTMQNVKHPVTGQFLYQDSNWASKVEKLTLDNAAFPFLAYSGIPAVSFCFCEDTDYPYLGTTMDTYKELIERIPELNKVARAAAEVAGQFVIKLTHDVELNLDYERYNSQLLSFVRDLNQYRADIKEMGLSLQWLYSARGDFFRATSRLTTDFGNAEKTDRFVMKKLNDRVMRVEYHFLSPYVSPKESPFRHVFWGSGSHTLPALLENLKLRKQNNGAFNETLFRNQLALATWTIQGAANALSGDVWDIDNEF
Assay type: binding
Summary of the method: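 Recombinant human TfR dimer (0.5 μM) was captured on a Ni-charged NTA chip and amine-coupled with EDC/NHS, then ethanolamine-capped. Peptides at 5–100 nM in HEPES pH 8.0 buffer with 150 mM NaCl, 0.05% Tween 20, 0.1% BSA and 1.0% DMSO were run by single-cycle kinetics; KD came from least-squares curve fitting.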

Compound | Kd [nM]
CC[C@H](C)[C@@H]1NC(=O)[C@H](Cc2ccc(OCC(=O)O)cc2)NC(=O)[C@H](Cc2ccc(O)cc2)NC(=O)[C@H](CC(N)=O)NC(=O)[C@H](Cc2cn(CC(=O)O)c3ccccc23)NC(=O)[C@H](C(C)C)NC(=O)[C@H](Cc2cccc(Cl)c2)N(C)C(=O)[C@H](C(C)C)NC(=O)[C@H](C)NC(=O)CSC[C@@H](C(=O)NCCOCCOCCOCCOCCC(N)=O)NC(=O)[C@H](Cc2ccc(O)cc2)N(C)C(=O)[C@H](Cc2ccccc2)NC(=O)[C@H](CCCNC(=N)N)NC(=O)[C@H](CCC(=O)N2CCN(CC(=O)O)CC2)NC(=O)[C@H]([C@@H](C)CC)NC1=O [894_0383] | 1 to 100
CC[C@H](C)[C@@H]1NC(=O)[C@H](Cc2ccc(OCC(=O)O)cc2)NC(=O)[C@H](Cc2ccc(O)cc2)NC(=O)[C@H](CC(N)=O)NC(=O)[C@H](Cc2cn(CC(=O)O)c3ccccc23)NC(=O)[C@H](C(C)C)NC(=O)[C@H](Cc2cccc(Cl)c2)N(C)C(=O)[C@H](C(C)C)NC(=O)[C@H](C)NC(=O)CSC[C@@H](C(=O)NCCOCCOCCOCCOCCC(N)=O)NC(=O)[C@H](Cc2ccc(O)cc2)N(C)C(=O)[C@H](Cc2ccccc2)NC(=O)[C@H](CCC(=O)N2CCN(CC(=O)O)CC2)NC(=O)[C@H](CCCNC(=N)N)NC(=O)[C@H]([C@@H](C)CC)NC1=O [894_0384] | 1 to 100
CC[C@H](C)[C@@H]1NC(=O)[C@H](Cc2ccc(OCC(=O)O)cc2)NC(=O)[C@H](Cc2ccc(O)cc2)NC(=O)[C@H](CC(N)=O)NC(=O)[C@H](Cc2cn(CC(=O)O)c3ccccc23)NC(=O)[C@H](C(C)C)NC(=O)[C@H](Cc2cccc(Cl)c2)N(C)C(=O)[C@H](C(C)C)NC(=O)[C@H](C)NC(=O)CSC[C@@H](C(=O)NCCOCCOCCOCCOCCC(N)=O)NC(=O)[C@H](Cc2ccc(O)cc2)N(C)C(=O)[C@H](Cc2ccccc2)NC(=O)[C@H](CC2CCN(CC(=O)O)CC2)NC(=O)[C@H](CCCNC(=N)N)NC(=O)[C@H]([C@@H](C)CC)NC1=O [894_0387] ({CH2CO}-AV[NMePhe(3-Cl)]V[Trp(1-CH2COOH)]NYY(Carboxymethyl)IIR[Ala(1-CH2CO2H-4-piperidyl)]F[NMeY]C[PEG4]-NH2; thioether N-15) | 1 to 100
CC[C@H](C)[C@@H]1NC(=O)[C@H](Cc2ccc(OCC(=O)O)cc2)NC(=O)[C@H](Cc2ccc(O)cc2)NC(=O)[C@H](CC(N)=O)NC(=O)[C@H](Cc2cn(CC(=O)O)c3ccccc23)NC(=O)[C@H](C(C)C)NC(=O)[C@H](Cc2cccc(Cl)c2)N(C)C(=O)[C@H](C(C)C)NC(=O)[C@H](C)NC(=O)CSC[C@@H](C(=O)NCCOCCOCCOCCOCCC(N)=O)NC(=O)[C@H](Cc2ccc(O)cc2)N(C)C(=O)[C@H](Cc2ccccc2)NC(=O)[C@H](CCCCN2CCOCC2)NC(=O)[C@H](CCCNC(=N)N)NC(=O)[C@H]([C@@H](C)CC)NC1=O [894_0389] ({CH2CO}-AV[NMePhe(3-Cl)]V[Trp(1-CH2COOH)]NYY(Carboxymethyl)IIR[Nle(6-morpholino)]F[NMeY]C[PEG4]-NH2; thioether N-15) | < 1
CC[C@H](C)[C@@H]1NC(=O)[C@H](Cc2ccc(O)cc2)NC(=O)[C@H](Cc2ccc(O)cc2)NC(=O)[C@H](CC(N)=O)NC(=O)[C@H](Cc2c[nH]c3ccc(Cl)cc23)NC(=O)[C@H](C(C)C)NC(=O)[C@H](Cc2ccccc2)N(C)C(=O)[C@H](C(C)C)NC(=O)[C@H](C)NC(=O)CSC[C@@H](C(=O)NCC(=O)N[C@@H](CCCCN=[N+]=[N-])C(N)=O)NC(=O)[C@H](Cc2ccc(O)cc2)N(C)C(=O)[C@H](Cc2ccccc2)NC(=O)[C@H](CCCNC(=N)N)NC(=O)[C@H](CCCNC(=N)N)NC(=O)[C@H]([C@@H](C)CC)NC1=O [894_3153] | 1 to 100
CC[C@H](C)[C@@H]1NC(=O)[C@H](Cc2ccc(OC)cc2)NC(=O)[C@H](Cc2ccc(O)cc2)NC(=O)[C@H](CC(N)=O)NC(=O)[C@H](Cc2c[nH]c3ccc(Cl)cc23)NC(=O)[C@H](C(C)C)NC(=O)[C@H](Cc2ccccc2)N(C)C(=O)[C@H](C(C)C)NC(=O)[C@H](C)NC(=O)CSC[C@@H](C(=O)NCC(=O)N[C@@H](CCCCN=[N+]=[N-])C(N)=O)NC(=O)[C@H](Cc2ccc(O)cc2)N(C)C(=O)[C@H](Cc2ccccc2)NC(=O)[C@H](CCCNC(=N)N)NC(=O)[C@H](CCCNC(=N)N)NC(=O)[C@H]([C@@H](C)CC)NC1=O [894_3154] | 1 to 100

Next, values leading:

Kd [nM] | Compound
< 1 | CC[C@H](C)[C@@H]1NC(=O)[C@H](Cc2ccc(OCC(=O)O)cc2)NC(=O)[C@H](Cc2ccc(O)cc2)NC(=O)[C@H](CC(N)=O)NC(=O)[C@H](Cc2cn(CC(=O)O)c3ccccc23)NC(=O)[C@H](C(C)C)NC(=O)[C@H](Cc2cccc(Cl)c2)N(C)C(=O)[C@H](C(C)C)NC(=O)[C@H](C)NC(=O)CSC[C@@H](C(=O)NCCOCCOCCOCCOCCC(N)=O)NC(=O)[C@H](Cc2ccc(O)cc2)N(C)C(=O)[C@H](Cc2ccccc2)NC(=O)[C@H](CCCNC(=N)N)NC(=O)[C@H](CC2CCN(CC(=O)O)CC2)NC(=O)[C@H]([C@@H](C)CC)NC1=O [894_0386] ({CH2CO}-AV[NMePhe(3-Cl)]V[Trp(1-CH2COOH)]NYY(Carboxymethyl)II[Ala(1-CH2CO2H-4-piperidyl)]RF[NMeY]C[PEG4]-NH2; thioether N-15)
< 1 | CC[C@H](C)[C@@H]1NC(=O)[C@H](Cc2ccc(OCC(=O)O)cc2)NC(=O)[C@H](Cc2ccc(O)cc2)NC(=O)[C@H](CC(N)=O)NC(=O)[C@H](Cc2cn(CC(=O)O)c3ccccc23)NC(=O)[C@H](C(C)C)NC(=O)[C@H](Cc2cccc(Cl)c2)N(C)C(=O)[C@H](C(C)C)NC(=O)[C@H](C)NC(=O)CSC[C@@H](C(=O)NCCOCCOCCOCCOCCC(N)=O)NC(=O)[C@H](Cc2ccc(O)cc2)N(C)C(=O)[C@H](Cc2ccccc2)NC(=O)[C@H](CCCNC(=N)N)NC(=O)[C@H](CCCCN2CCOCC2)NC(=O)[C@H]([C@@H](C)CC)NC1=O [894_0388]
< 1 | CC[C@H](C)[C@@H]1NC(=O)[C@H](Cc2ccc(OCC(=O)O)cc2)NC(=O)[C@H](Cc2ccc(O)cc2)NC(=O)[C@H](CC(N)=O)NC(=O)[C@H](Cc2cn(CC(=O)O)c3ccccc23)NC(=O)[C@H](C(C)C)NC(=O)[C@H](Cc2cccc(Cl)c2)N(C)C(=O)[C@H](C(C)C)NC(=O)[C@H](C)NC(=O)CSC[C@@H](C(=O)NCCOCCOCCOCCOCCC(N)=O)NC(=O)[C@H](Cc2ccc(O)cc2)N(C)C(=O)[C@H](Cc2ccccc2)NC(=O)[C@H](CCCCN2CCOCC2)NC(=O)[C@H](CCCCN2CCOCC2)NC(=O)[C@H]([C@@H](C)CC)NC1=O [894_0390] ({CH2CO}-AV[NMePhe(3-Cl)]V[Trp(1-CH2COOH)]NYY(Carboxymethyl)II[Nle(6-morpholino)][Nle(6-morpholino)]F[NMeY]C[PEG4]-NH2; thioether N-15)
1 to 100 | CC[C@H](C)[C@@H]1NC(=O)[C@H](Cc2ccc(OC)cc2)NC(=O)[C@H](Cc2ccc(O)cc2)NC(=O)[C@H](CC(N)=O)NC(=O)[C@H](Cc2c[nH]c3ccc(Cl)cc23)NC(=O)[C@H](C(C)C)NC(=O)[C@H](Cc2ccccc2)N(C)C(=O)[C@H](C(C)C)NC(=O)[C@H](C)NC(=O)CSC[C@@H](C(=O)NCC(=O)N[C@@H](CCCCN=[N+]=[N-])C(N)=O)NC(=O)[C@H](Cc2ccc(O)cc2)N(C)C(=O)[C@H](Cc2ccccc2)NC(=O)[C@@H](CCCNC(=N)N)NC(=O)[C@H](CCCNC(=N)N)NC(=O)[C@H]([C@@H](C)CC)NC1=O [894_3155]
